pIC50: −log10 of the molar value.
Tests used:
[1] = biological target: Human Met (residues R974-S1390 with A1209G and V1290L) (Homo sapiens, UniProt P08581); assay: Human Met kinase assay (33P radiometric, KinaseProfiler); assay type: biochemical; details: 10 μM ATP, read-out: c-Met IC50
Description: (§1) Kinase activity and compound inhibition were investigated using the ^33P-Phosphoryl transfer radiometric kinase assay, performed using the KinaseProfiler™ service of Eurofins Pharma Discovery Services UK Limited. Dose-response experiments were performed using nine compound concentrations in a 96-well microtiter plate. For each assay, all compounds were prepared to a 50× final assay concentration (50 μM) in 100% DMSO, then diluted in a half-log series, with the final top concentration at 1 μM. This working stock of the compound was added to the assay well as the first component in the reaction, followed by the remaining components as detailed in the following assay protocols below. The positive control wells (100% kinase activity) contain all components of the reaction including 2% DMSO (control for solvent effects), except the compound of interest. Blank wells contain all components of the reaction, with the reference inhibitor, staurosporine. This reference compound was used to abolish kinase activity and generated the 0% kinase activity base-line. IC50 values were calculated by nonlinear regression analysis using the sigmoidal dose-response (variable slope) curve fit on XLFit version 5.3 (ID Business Solutions).
Human Met (residues R974-S1390 with A1209G and V1290L, 3.4 nM) was incubated with 8 mM MOPS pH 7.0, 0.2 mM EDTA, 250 μM KKKGQEEEYVFIE (SEO ID NO. 45), 1 mM sodium orthovanadate, 5 mM […], 10 mM magnesium acetate, and 10 μM [γ-33P-ATP]. The reaction was initiated by the addition of the Mg/ATP mix. After incubation for 40 minutes at room temperature, the reaction was stopped by the addition of phosphoric acid to a concentration of 0.5%. A reaction aliquot of […] was then spotted onto a P30 filtermat and washed four times for 4 minutes in 0.425% phosphoric acid and once in methanol prior to drying and scintillation counting. Incorporated 33P was measured using the Wallac Microbeta scintillation counter (Perkin Elmer).

AXL = AXL (Homo sapiens (Human), UniProt P30530); assay: AXL autophosphorylation ELISA in A-172 cells; assay type: cell-based; details: cellular, Gas6 stimulated
Chain of AXL (P30530 26-894): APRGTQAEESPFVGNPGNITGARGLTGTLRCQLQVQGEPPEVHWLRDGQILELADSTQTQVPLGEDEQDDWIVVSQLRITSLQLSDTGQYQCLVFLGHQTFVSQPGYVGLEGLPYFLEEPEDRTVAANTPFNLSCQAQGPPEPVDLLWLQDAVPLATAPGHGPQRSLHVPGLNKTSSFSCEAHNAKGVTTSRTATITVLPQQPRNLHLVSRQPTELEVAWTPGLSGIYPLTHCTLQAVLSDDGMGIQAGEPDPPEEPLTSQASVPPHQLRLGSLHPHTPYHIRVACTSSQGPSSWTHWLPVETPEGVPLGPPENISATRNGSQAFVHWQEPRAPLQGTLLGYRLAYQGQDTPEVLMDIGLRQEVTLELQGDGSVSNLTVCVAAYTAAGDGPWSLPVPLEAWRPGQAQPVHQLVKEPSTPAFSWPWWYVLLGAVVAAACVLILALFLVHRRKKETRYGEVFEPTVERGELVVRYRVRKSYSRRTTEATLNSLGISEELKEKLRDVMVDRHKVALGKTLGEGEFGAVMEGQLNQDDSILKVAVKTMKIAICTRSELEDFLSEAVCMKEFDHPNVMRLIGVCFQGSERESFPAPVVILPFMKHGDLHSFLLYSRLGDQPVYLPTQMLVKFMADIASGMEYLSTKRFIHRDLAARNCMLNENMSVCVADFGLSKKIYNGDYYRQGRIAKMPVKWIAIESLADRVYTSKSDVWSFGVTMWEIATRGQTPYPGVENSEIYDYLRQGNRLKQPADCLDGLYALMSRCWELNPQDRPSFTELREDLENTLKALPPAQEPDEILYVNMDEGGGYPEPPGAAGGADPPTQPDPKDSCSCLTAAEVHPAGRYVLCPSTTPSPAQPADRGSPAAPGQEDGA
Procedure, shortened: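 Serum-starved (24 h) A-172 glioblastoma cells pretreated 1 h with compounds (8-point curve, 0.3% DMSO), then stimulated 15 min with 1 μg/mL Gas6. Lysate phospho-AXL measured by sandwich ELISA against a phospho-AXL standard; IC50 from 4-parameter logistic fit between DMSO and reference-inhibitor controls.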

[2] = biological target: Human Axl (residues H473-A894 with Q764R) (Homo sapiens (Human), UniProt P30530, Q764R); assay: Human AXL kinase assay (33P radiometric, KinaseProfiler); assay type: biochemical; details: 10 μM ATP
Chain of Human Axl (residues H473-A894 with Q764R) (P30530 473-894 Q764R): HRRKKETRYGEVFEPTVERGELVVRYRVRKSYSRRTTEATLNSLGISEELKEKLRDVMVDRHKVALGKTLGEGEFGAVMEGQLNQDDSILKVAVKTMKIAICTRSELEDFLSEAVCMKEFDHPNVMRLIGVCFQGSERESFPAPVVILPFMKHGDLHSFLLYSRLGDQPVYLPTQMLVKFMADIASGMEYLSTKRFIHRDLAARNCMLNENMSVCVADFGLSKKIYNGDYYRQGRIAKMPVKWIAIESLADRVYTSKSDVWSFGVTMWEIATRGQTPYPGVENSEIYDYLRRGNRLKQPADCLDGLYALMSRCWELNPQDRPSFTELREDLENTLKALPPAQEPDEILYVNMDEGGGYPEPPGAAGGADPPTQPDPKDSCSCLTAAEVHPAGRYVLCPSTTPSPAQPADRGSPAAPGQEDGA
Description: as §1
Human Axl (residues H473-A894 with Q764R, 161 nM) was incubated with 8 mM MOPS pH 7.0, 0.2 mM EDTA, 250 μM KKSRGDYMTMQIG (SEO ID NO. 43) 10 mM magnesium acetate and 10 μM [γ-33P-ATP]. The reaction was initiated by the addition of the Mg/ATP mix. After incubation for 40 minutes at room temperature, the reaction was stopped by the addition of phosphoric acid to a concentration of 0.5%. A reaction aliquot of 10 μL was then spotted onto a P30 filtermat and washed four times for 4 minutes in 0.425% phosphoric acid and once in methanol prior to drying and scintillation counting. Incorporated ^33P was measured using the Wallac Microbeta scintillation counter (Perkin Elmer).

| SMILES | pIC50 [1] | pIC50 (AXL) | pIC50 [2] |
| --- | --- | --- | --- |
| COC(=O)c1cc2c(Oc3ccc(NC(=O)C4(C(=O)Nc5ccc(F)cc5)CC4)cc3)ccnc2cc1OC [Compound 5, methyl 4-[4-[[1-[(4-fluorophenyl)carbamoyl]-cyclopropanecarbonyl]amino]-phenoxy]-7-methoxyquinoline-6-carboxylate] | ≥ 8.00 | 7.00 to 8.00 | 7.00 to 8.00 |
| COc1cc2nccc(Oc3ccc(NC(=O)C4(C(=O)Nc5ccc(F)cc5)CC4)cc3)c2cc1C(=O)NC1COC1 [Compound 13, 1-N′-(4-fluorophenyl)-1-N-[4-[7-methoxy-6-(oxetan-3-ylcarbamoyl)quinolin-4-yl]oxyphenyl]cyclopropane-1,1-dicarboxamide] | ≥ 8.00 | 7.00 to 8.00 | 7.00 to 8.00 |
| COc1cc2nccc(Oc3ccc(NC(=O)C4(C(=O)Nc5ccc(F)cc5)CC4)cc3)c2cc1C(=O)NC1CN(C)C1 [Compound 14, 1-N′-(4-fluorophenyl)-1-N-[4-[7-methoxy-6-[(1-methylazetidin-3-yl)carbamoyl]quinolin-4-yl]oxyphenyl]cyclopropane-1,1-dicarboxamide] | ≥ 8.00 | ≥ 8.00 | 7.00 to 8.00 |
| COc1cc2nccc(Oc3ccc(NC(=O)C4(C(=O)Nc5ccc(F)cc5)CC4)cc3)c2cc1C(=O)N1CCC1 [Compound 15, 1-N-[4-[6-(azetidine-1-carbonyl)-7-methoxyquinolin-4-yl]oxyphenyl]-1-N′-(4-fluorophenyl)cyclopropane-1,1-dicarboxamide] | 7.00 to 8.00 | 7.00 to 8.00 | 7.00 to 8.00 |
| COc1cc2nccc(Oc3ccc(NC(=O)C4(C(=O)Nc5ccc(F)cc5)CC4)cc3)c2cc1C(=O)N1CC(O)C1 [Compound 16, 1-N′-(4-fluorophenyl)-1-N-[4-[6-(3-hydroxyazetidine-1-carbonyl)-7-methoxyquinolin-4-yl]oxyphenyl]cyclopropane-1,1-dicarboxamide] | ≥ 8.00 | 7.00 to 8.00 | 7.00 to 8.00 |
| COc1cc2nccc(Oc3ccc(NC(=O)C4(C(=O)Nc5ccc(F)cc5)CC4)cc3)c2cc1C#N [Compound 37, 1-N-[4-(6-cyano-7-methoxyquinolin-4-yl)oxyphenyl]-1-N′-(4-fluorophenyl)cyclopropane-1,1-dicarboxamide] | 7.00 to 8.00 | 7.00 to 8.00 | 7.00 to 8.00 |
| NC(=O)c1ccc2nccc(Oc3ccc(NC(=O)C4(C(=O)Nc5ccc(F)cc5)CC4)cc3)c2c1 [Compound 58, 1-N-[4-(6-carbamoylquinolin-4-yl)oxyphenyl]-1-N′-(4-fluorophenyl)cyclopropane-1,1-dicarboxamide] | 7.00 to 8.00 | 7.00 to 8.00 | 7.00 to 8.00 |
| CNC(=O)c1ccc2nccc(Oc3ccc(NC(=O)C4(C(=O)Nc5ccc(F)cc5)CC4)cc3)c2c1 [Compound 59, 1-N′-(4-fluorophenyl)-1-N-[4-[6-(methylcarbamoyl)quinolin-4-yl]oxyphenyl]cyclopropane-1,1-dicarboxamide] | 7.00 to 8.00 | 6.52 to 7.00 | 7.00 to 8.00 |
| CN1CC(NC(=O)c2ccc3nccc(Oc4ccc(NC(=O)C5(C(=O)Nc6ccc(F)cc6)CC5)cc4)c3c2)C1 [Compound 60, 1-N′-(4-fluorophenyl)-1-N-[4-[6-[(1-methylazetidin-3-yl)carbamoyl]quinolin-4-yl]oxyphenyl]cyclopropane-1,1-dicarboxamide] | 7.00 to 8.00 | 6.52 to 7.00 | 7.00 to 8.00 |
| NC(=O)c1cc2c(Oc3ccc(NC(=O)C4(C(=O)Nc5ccc(F)cc5)CC4)cc3)ccnc2cc1F [Compound 67, 1-N-[4-(6-carbamoyl-7-fluoroquinolin-4-yl)oxyphenyl]-1-N′-(4-fluorophenyl)cyclopropane-1,1-dicarboxamide] | 7.00 to 8.00 | 6.52 to 7.00 | 7.00 to 8.00 |

The next lines start with the values.

| pIC50 [1] | pIC50 (AXL) | pIC50 [2] | SMILES |
| --- | --- | --- | --- |
| ≥ 8.00 | ≥ 8.00 | 7.00 to 8.00 | COCCOc1cc2nccc(Oc3ccc(NC(=O)C4(C(=O)Nc5ccc(F)cc5)CC4)cc3)c2cc1C(N)=O [Compound 103, 1-N-[4-[6-carbamoyl-7-(2-methoxyethoxy)quinolin-4-yl]oxyphenyl]-1-N′-(4-fluorophenyl)cyclopropane-1,1-dicarboxamide] |
| ≥ 8.00 | 7.00 to 8.00 | ≥ 8.00 | COC(=O)c1cc2c(Oc3ccc(NC(=O)C4(C(=O)Nc5ccc(F)cc5)CC4)cc3Cl)ccnc2cc1OC [Compound 128, methyl 4-[2-chloro-4-[[1-[(4-fluorophenyl)carbamoyl]cyclopropanecarbonyl]amino]phenoxy]-7-methoxyquinoline-6-carboxylate] |
| ≥ 8.00 | ≥ 8.00 | ≥ 8.00 | COC(=O)c1cc2c(Oc3ccc(NC(=O)C4(C(=O)Nc5ccc(F)cc5)CC4)cc3F)ccnc2cc1OC [Compound 129, methyl 4-[2-fluoro-4-[[1-[(4-fluorophenyl)carbamoyl]cyclopropanecarbonyl]amino]phenoxy]-7-methoxyquinoline-6-carboxylate] |
| 7.00 to 8.00 | < 6.52 | 7.00 to 8.00 | COc1cc2nccc(Oc3ccc(NC(=O)C4(C(=O)Nc5ccc(F)cc5)CC4)cc3Cl)c2cc1C(=O)O [Compound 130, 4-[2-chloro-4-[[1-[(4-fluorophenyl)carbamoyl]cyclopropanecarbonyl]amino]phenoxy]-7-methoxyquinoline-6-carboxylic acid] |
| ≥ 8.00 | < 6.52 | 7.00 to 8.00 | COc1cc2nccc(Oc3ccc(NC(=O)C4(C(=O)Nc5ccc(F)cc5)CC4)cc3F)c2cc1C(=O)O [Compound 131, 4-[2-fluoro-4-[[1-[(4-fluorophenyl)carbamoyl]cyclopropanecarbonyl]amino]phenoxy]-7-methoxyquinoline-6-carboxylic acid] |
| 7.00 to 8.00 | 7.00 to 8.00 | 7.00 to 8.00 | COC(=O)c1cc2nccc(Oc3ccc(NC(=O)C4(C(=O)Nc5ccc(F)cc5)CC4)cc3)c2cc1C [Compound 140, methyl 4-[4-[[1-[(4-fluorophenyl)carbamoyl]cyclopropanecarbonyl]amino]phenoxy]-6-methylquinoline-7-carboxylate] |
| ≥ 8.00 | 7.00 to 8.00 | 7.00 to 8.00 | CNC(=O)c1cc2nccc(Oc3ccc(NC(=O)C4(C(=O)Nc5ccc(F)cc5)CC4)cc3)c2cc1C [Compound 143, 1-N′-(4-fluorophenyl)-1-N-[4-[6-methyl-7-(methylcarbamoyl)quinolin-4-yl]oxyphenyl]cyclopropane-1,1-dicarboxamide] |
| ≥ 8.00 | 7.00 to 8.00 | 7.00 to 8.00 | COC(=O)c1cc2nccc(Oc3ccc(NC(=O)C4(C(=O)Nc5ccc(F)cc5)CC4)cc3)c2cc1OC [Compound 150, methyl 4-[4-[[1-[(4-fluorophenyl)carbamoyl]cyclopropanecarbonyl]amino]phenoxy]-6-methoxyquinoline-7-carboxylate] |
| ≥ 8.00 | 7.00 to 8.00 | 7.00 to 8.00 | COc1cc2c(Oc3ccc(NC(=O)C4(C(=O)Nc5ccc(F)cc5)CC4)cc3)ccnc2cc1C(N)=O [Compound 152, 1-N-[4-(7-carbamoyl-6-methoxyquinolin-4-yl)oxyphenyl]-1-N′-(4-fluorophenyl)cyclopropane-1,1-dicarboxamide] |
| 7.00 to 8.00 | 7.00 to 8.00 | 7.00 to 8.00 | CNC(=O)c1cc2nccc(Oc3ccc(NC(=O)C4(C(=O)Nc5ccc(F)cc5)CC4)cc3)c2cc1OC [Compound 153, 1-N′-(4-fluorophenyl)-1-N-[4-[6-methoxy-7-(methylcarbamoyl)quinolin-4-yl]oxyphenyl]cyclopropane-1,1-dicarboxamide] |
| 7.00 to 8.00 | < 6.52 | 7.00 to 8.00 | COC(=O)c1ccc2c(Oc3ccc(NC(=O)C4(C(=O)Nc5ccc(F)cc5)CC4)cc3)ccnc2c1 [Compound 162, methyl 4-[4-[[1-[(4-fluorophenyl)carbamoyl]cyclopropanecarbonyl]amino]phenoxy]quinoline-7-carboxylate] |
